Residues, ends and D or L forms follow the SMILES beside them.

Holding throughout (format): cell-based, human
The subject of data set [1] is HSC-4 cells. Briefly: MTT growth inhibition by SSTP1 with or without IL6 pathway inhibitors. To be noted: 4h SSTP1 (10 μM), pre-treatment LMT-28 60 μM 1.5 h, Anti-IL6Rα 10µg/ml 2h, SC144 40 μM 2h. How it is done: (§1) Concentration- and time-dependent effects on cell growth inhibition were measured using the MTT [3-(4,5-dimethylthiazol-2-yl)−2,5-diphenyltetrazolium bromide] assay. 5000 cells/well were seeded in 96-well plate and were treated with peptides for 48h. Cells were incubated with MTT (1.25 mg/ml) for 2 hours at 37°C. The blue formazan crystals were solubilized in isopropanol and read at 595 nm.
Figure 8 SSTP1-induced pcJUN activation depends on JNK and on gp130 and IL6Rα. (A) HSC-4 cells treated with SSTP1 (30 minute) and the indicated inhibitors were used for western blot analysis of the indicated molecules (B) Densitometric analysis was done for the bands of (a) and relative phosphorylation based on untreated is plotted. (C) The cells treated with SSTP1 (30 minutes) and IL6Rα antibody or SC144 were used for western blot analysis of the indicated molecules. (D) Densitometric analysis was done for the bands of (C) and relative phosphorylation based on untreated is plotted. (E) Growth inhibition analyzed by MTT assay after 4h treatment with SSTP1(10 μM) with or without the inhibitors. LMT-28 (60 μM). For all the experiments SSTP1 (10 μM) was used with or without LMT-28 (60 μM), Ruxolitinib (30 μM) or SP600125 (20 μM), Anti-IL6Rα (10µg/ml) or SC144 (40 μM). […]

In data set [2] the test system is HSC-4 cells. Briefly: MTT growth inhibition assay, HSC-4 cells. The note with it: 48 h. The protocol: as §1
IC50 value for HSC-4 cells and MDA-MB-231cells were calculated with Dose-response model. Analysis of dose-response data is made available through the ‘drc’ package in R environment for statistical computing. […] The statistical significance between two groups was analyzed using Students paired two-tailed t-test.
Figure 1 SSTP1 induces apoptosis in oral cancer cells (A) HSC-4 cells were treated with peptides SSTP1 and SSTP2 at different concentrations in 0.5% DMEM for 48 h, and MTT assay was performed to calculate % growth inhibition. […] (C)The quantified populations are represented in the graph. […] (D) The HSC-4 cells treated with 10 μM SSTP1 or SSTP2 for indicated time intervals were used for western blot analyses (E) Densitometric analysis was done for the bands, and fold change based on 0min was calculated. […]
(Tetrazolium dyes change colour on reduction, which living cells bring about.)

The next data set concerns MDA-MB-231 cells. The note with it: 48 h. How it is done: as §1
IC50 value for HSC-4 cells and MDA-MB-231cells were calculated with Dose-response model. Analysis of dose-response data is made available through the ‘drc’ package in R environment for statistical computing. The “drm” function in the package “drc” is a general model fitting function for analysis of concentration/dose/time-effect/response data and the four parameter a log-logistic model was fitted for estimating the slope, lower, upper and IC50 values. […] The statistical significance between two groups was analyzed using Students paired two-tailed t-test.
Figure 10 Sensitivity of cancer cells to SSTP1 depends on the level of IL6Rα. […] (C) Growth inhibition analyzed by MTT assay using 10 μM SSTP1 treated for 48h. (D) Growth inhibitory curve of SSTP1 for MDA-MB-231 cells and HEK-293 cells analyzed after 48h treatment with SSTP1 and Hemolysis induced by SSTP1 on human RBC. […] (F) The blots were quantified using ImageJ, and the graphs were plotted. *p < .05, **p < .01, ***p < .001.

On to `O=C(NNc1nc2cc(F)ccc2n2cccc12)c1cnccn1` [SC144], for which the “effect on SSTP1-induced growth inhibition” value with HSC-4 cells [1] is given as “significantly inhibited”.
The term IC50 denotes the concentration at which inhibition is half-maximal. On to `CC[C@H](C)[C@H](NC(=O)[C@H](CC(C)C)NC(=O)[C@H](CC(C)C)NC(=O)[C@@H]1CCCN1C(=O)[C@H](CC(C)C)NC(=O)[C@@H](N)Cc1ccccc1)C(=O)N[C@@H](CO)C(=O)N[C@@H](C)C(=O)N[C@@H](CC(C)C)C(=O)N[C@H](C(=O)N[C@@H](CO)C(=O)N[C@@H](CC(C)C)C(=O)N[C@@H](Cc1ccccc1)C(=O)N1CCC[C@H]1C(=O)N[C@@H](CCCCN)C(=O)N[C@@H](CC(C)C)C(=O)NCC(=O)N[C@@H](CCCCN)C(=O)O)[C@@H](C)O` [SSTP1] (H-FLPLLISALTSLFPKLGK-OH), for which the IC50 in the data set on HSC-4 cells [2] came to 10.2 µM; in the data set on MDA-MB-231 cells, 4.5 µM.
`CC[C@H](C)[C@H](NC(=O)[C@H](CCCNC(=N)N)NC(=O)[C@H](CCCNC(=N)N)NC(=O)[C@@H]1CCCN1C(=O)[C@H](CC(C)C)NC(=O)[C@@H](N)Cc1ccccc1)C(=O)N[C@@H](CO)C(=O)N[C@@H](C)C(=O)N[C@@H](CCCNC(=N)N)C(=O)N[C@H](C(=O)N[C@@H](CO)C(=O)N[C@@H](CC(C)C)C(=O)N[C@@H](Cc1ccccc1)C(=O)N1CCC[C@H]1C(=O)N[C@@H](CCCCN)C(=O)N[C@@H](CCCNC(=N)N)C(=O)NCC(=O)N[C@@H](CCCCN)C(N)=O)[C@@H](C)O` [SSTP2] (H-FLPRRISARTSLFPKRGK-NH2): in the data set on HSC-4 cells [2] (HSC-4 cells, MTT), the “cytotoxicity (growth inhibition) in words” value was “negligible cytotoxicity”.

The record behind these values is publication PMC8639500, “SSTP1, a Host Defense Peptide, Exploits the Immunomodulatory IL6 Pathway to Induce Apoptosis in Cancer Cells” (Frontiers in Immunology, 2021).
